Some test systems named below: UACC-257; HOP-92; MOLT-4; ACHN; K562; SW-620; SK-MEL-5; NCI-H522; SK-MEL-2; OVCAR-3; TK-10; CCRF-CEM; 786-0; HCT-116; Malme-3M; SNB-19; NCI/ADR-RES; U-251; NCI-H23; HCC 2998.
Assay in all cases: DTP human tumour cell line panel, 48 h

Structures are written as SMILES.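 96-well plates; 48 h exposure; 5 concentrations. Endpoints by linear interpolation between flanking doses. Not reached: highest tested concentration assigned. Abbreviation: GI50, concentration required for 50% inhibition of growth.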 Active and inactive are the calls of the source. Rule as the data show it: active = GI50 up to about 1.1 µM and inactive = higher.

A word on the GI50: it is the concentration giving 50% growth inhibition.

In the case of `CN(C)c1cccc(/C=C(\C#N)c2ccccc2)c1`, the GI50 was 1.01 µM (active) in the experiment with UACC-257; 2.94 µM (inactive) in the experiment with HOP-92; 0.493 µM (active) in the experiment with MOLT-4; 14.4 µM (inactive) with ACHN; 0.0927 µM (active) in the experiment on K562; 0.316 µM (active) in the experiment on SW-620. Also, the GI50 is 0.371 µM (active) with SK-MEL-5; 0.273 µM (active) with NCI-H522; 0.316 µM (active) in the experiment on SK-MEL-2; 0.157 µM (active) in the experiment with OVCAR-3; 0.944 µM (active) with TK-10; 0.794 µM (active) in the experiment on CCRF-CEM. In addition, the GI50 in the experiment with 786-0 is 2.21 µM (inactive); in the experiment on HCT-116, 0.396 µM (active); with Malme-3M, 1.95 µM (inactive); with SNB-19, 1.72 µM (inactive); in the experiment with NCI/ADR-RES, 0.257 µM (active); in the experiment on U-251 it was 0.687 µM (active). Moreover, the GI50 with NCI-H23 was 1.44 µM (inactive); in the experiment with HCC 2998, 0.565 µM (active).

For `Clc1ccc(OCc2nnc3sc(-c4ccc(-c5ccc(Cl)cc5Cl)o4)nn23)c(Cl)c1`, the GI50 is 18.4 µM (inactive) with UACC-257; 18.9 µM (inactive) in the experiment with HOP-92; 18.6 µM (inactive) with MOLT-4; 20 µM (inactive) in the experiment with ACHN; 24.1 µM (inactive) with K562; 34.7 µM (inactive) with SW-620. Besides, the GI50 in the experiment with SK-MEL-5 was 20.1 µM (inactive); with NCI-H522, 17.8 µM (inactive); in the experiment on SK-MEL-2 it was 16.3 µM (inactive); in the experiment with OVCAR-3 it was 17.1 µM (inactive); in the experiment on TK-10, 19.5 µM (inactive); in the experiment on CCRF-CEM it was 25.3 µM (inactive). For the same molecule, the GI50 is 13.3 µM (inactive) with 786-0; 15.7 µM (inactive) with HCT-116; 18.8 µM (inactive) with Malme-3M; 22.1 µM (inactive) in the experiment on SNB-19; 20 µM (inactive) with NCI/ADR-RES; 19.8 µM (inactive) in the experiment with U-251. The GI50 was 21.6 µM (inactive) in the experiment with NCI-H23 and 17.9 µM (inactive) in the experiment with HCC 2998.

As for `CC(C)=CCc1c(O)c(CC2=C(O)C(CC=C(C)C)(C(=O)C(C)C)C(O)=C(C)C2=O)c(O)c(C(=O)C(C)C)c1O` (stereo not given), the GI50 is 11.5 µM (inactive) with UACC-257; 5.07 µM (inactive) in the experiment with HOP-92; 2.31 µM (inactive) with MOLT-4; 11.8 µM (inactive) in the experiment with ACHN; 8.61 µM (inactive) in the experiment on K562; 24 µM (inactive) with SW-620. Besides, the GI50 in the experiment with SK-MEL-5 is 7.87 µM (inactive); in the experiment on NCI-H522, 6.55 µM (inactive); in the experiment on SK-MEL-2 it was 11.5 µM (inactive); in the experiment with OVCAR-3, 12.2 µM (inactive); in the experiment on TK-10 it was 13.2 µM (inactive); in the experiment on CCRF-CEM it was 5.78 µM (inactive). Moreover, the GI50 is 10.7 µM (inactive) in the experiment on 786-0; 3.05 µM (inactive) in the experiment with HCT-116; 8.02 µM (inactive) with Malme-3M; 7.73 µM (inactive) with SNB-19; 10.6 µM (inactive) in the experiment on NCI/ADR-RES; 12.4 µM (inactive) with U-251. Moreover, the figures for the GI50 in the experiment on NCI-H23 and in the experiment with HCC 2998 were 8.43 µM (inactive) and 7.8 µM (inactive), respectively.

With `Oc1ccc(C(=C(Br)c2ccccc2)c2ccc(O)cc2)cc1`, the GI50 is 12.6 µM (inactive) in the experiment on UACC-257; 10 µM (inactive) with HOP-92; 5.48 µM (inactive) with MOLT-4; 9.16 µM (inactive) in the experiment on ACHN; 2.78 µM (inactive) in the experiment on K562; 3.57 µM (inactive) in the experiment on SW-620. In addition, the GI50 with SK-MEL-5 is 3.47 µM (inactive); with NCI-H522, 4.47 µM (inactive); in the experiment with SK-MEL-2 it was 5.74 µM (inactive); in the experiment with OVCAR-3, 3.15 µM (inactive); in the experiment on TK-10, 13.8 µM (inactive); in the experiment on CCRF-CEM it was 7.52 µM (inactive). Besides, the GI50 was 9.77 µM (inactive) in the experiment on 786-0; 4.25 µM (inactive) with HCT-116; 5.52 µM (inactive) in the experiment with Malme-3M; 5.15 µM (inactive) in the experiment with SNB-19; 3.32 µM (inactive) in the experiment with NCI/ADR-RES; 4.51 µM (inactive) in the experiment on U-251. Moreover, the figures for the GI50 in the experiment on NCI-H23 and in the experiment with HCC 2998 were 10.4 µM (inactive) and 8.65 µM (inactive), respectively.

Turning to `CC(=O)[C@H]1CC[C@@H]2[C@]1(C)CC=C1[C@]23C=C[C@]2(C[C@@H](O)CC[C@]12C)C(C(=O)O)C3C(=O)O` (stereo not given in full), the GI50 with UACC-257, in the experiment on HOP-92, in the experiment on MOLT-4, in the experiment with ACHN, in the experiment with K562 and in the experiment with SW-620 was > 100 µM (inactive) throughout. Also, the GI50 in the experiment on SK-MEL-5, with NCI-H522, in the experiment on SK-MEL-2, in the experiment with OVCAR-3, in the experiment on TK-10 and in the experiment with CCRF-CEM was > 100 µM (inactive) each time. Further, the GI50 with 786-0, in the experiment with HCT-116, with Malme-3M, in the experiment on SNB-19, in the experiment with NCI/ADR-RES and in the experiment on U-251 was > 100 µM (inactive) in each case. Besides, the GI50 with NCI-H23 and in the experiment on HCC 2998 was > 100 µM (inactive) throughout.

Take `Cc1c(S(=O)(=O)c2ccccc2)c(N)n(CCN(C)C)c1C`: the GI50 with UACC-257, in the experiment with HOP-92, with MOLT-4, in the experiment on ACHN, with K562 and with SW-620 was > 100 µM (inactive) each time. For the same molecule, the GI50 in the experiment with SK-MEL-5, in the experiment on NCI-H522, in the experiment on SK-MEL-2, in the experiment with OVCAR-3, with TK-10 and in the experiment with CCRF-CEM was > 100 µM (inactive) throughout. The GI50 with 786-0, in the experiment with HCT-116, in the experiment with Malme-3M, in the experiment with SNB-19, in the experiment with NCI/ADR-RES and with U-251 was > 100 µM (inactive) each time. Further, the GI50 with NCI-H23 was > 100 µM (inactive); in the experiment with HCC 2998 it was 75 µM (inactive).

Turning to `CCOC(=O)/C(SC#N)=C(/N)N1CCCC1`, the GI50 in the experiment on UACC-257, in the experiment on HOP-92, in the experiment on MOLT-4, with ACHN, in the experiment on K562 and in the experiment with SW-620 was > 100 µM (inactive) each time. The GI50 in the experiment on SK-MEL-5, in the experiment on NCI-H522, in the experiment with SK-MEL-2, in the experiment on OVCAR-3, in the experiment with TK-10 and with CCRF-CEM was > 100 µM (inactive) in each case. For the same molecule, the GI50 with 786-0, with HCT-116, in the experiment with Malme-3M, with SNB-19, in the experiment with NCI/ADR-RES and in the experiment on U-251 was > 100 µM (inactive) in each case. The GI50 in the experiment on NCI-H23 and in the experiment on HCC 2998 was > 100 µM (inactive) in each case.

Turning to `Cc1cc(C)c(/C=C2\C(=O)Nc3ccccc32)[nH]1` [SEMAXANIB], the GI50 is > 100 µM (inactive) with UACC-257; 48.3 µM (inactive) in the experiment with HOP-92; > 78.2 µM (inactive) with MOLT-4; 66.2 µM (inactive) in the experiment with ACHN; > 100 µM (inactive) in the experiment on K562; > 87.7 µM (inactive) in the experiment with SW-620. Moreover, the GI50 was > 90.8 µM (inactive) in the experiment on SK-MEL-5; > 49.9 µM (inactive) in the experiment on NCI-H522; > 75.9 µM (inactive) in the experiment with SK-MEL-2; > 100 µM (inactive) with OVCAR-3; > 100 µM (inactive) in the experiment on TK-10; > 100 µM (inactive) in the experiment on CCRF-CEM. Besides, the GI50 with 786-0 is > 100 µM (inactive); in the experiment with HCT-116, 72.9 µM (inactive); with Malme-3M it was > 58.5 µM (inactive); with SNB-19, > 100 µM (inactive); in the experiment on NCI/ADR-RES, > 100 µM (inactive); in the experiment with U-251, > 100 µM (inactive). In addition, the values for the GI50 in the experiment on NCI-H23 and in the experiment with HCC 2998 were 7.96 µM (inactive) and 38.8 µM (inactive), respectively.

Values taken from ChEMBL document CHEMBL1201862, “PubChem BioAssay data set” (2004).
